Patent publication US6737383B1, “Herbicidal oxadiazolidines” (priority 1999, dated 2004)

Tests used:
cocklebur = assay: Test B pre/postemergence cocklebur; type: in vivo, Xanthium strumarium; conditions: for Cocklebur plant response rating (0 to 10 scale): 0 is no effect
Method in brief: (§1)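 Response is a visual 0-to-10 score relative to untreated plants, where 0 means no effect and 10 means complete control, taken twelve to sixteen days after application. Treatments went onto soil at planting and onto foliage of 1- to 4-leaf plants, using a surfactant-containing non-phytotoxic solvent.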

giant foxtail = assay: Test B pre/postemergence giant foxtail; type: in vivo, Setaria faberii; conditions: for Giant foxtail plant response rating (0 to 10 scale): 0 is no effect
Method in brief: as §1

morningglory = assay: Test B pre/postemergence morningglory; type: in vivo, Ipomoea hederacea; conditions: for Morningglory plant response rating (0 to 10 scale): 0 is no effect
Method in brief: as §1

bamyardgrass = assay: Test B flood test barnyardgrass; type: in vivo, Echinochloa crus-galli; conditions: for Plant response rating, Barnyardgrass: Rate 500 g/ha
Method in brief: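 Read-out is a visual response score from 0 (no effect) to 10 (complete control), assigned by comparison with untreated controls. Treatment was applied at the 2-leaf stage, and plants stayed in the greenhouse for twelve to sixteen days before scoring.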

[1] = Preemergence, Rate 62 g/ha, scale of 0 to 10 where 0 is no effect and 10 is complete control
[2] = Preemergence, Rate 125 g/ha, 10 is complete control
[3] = Preemergence, Rate 250 g/ha, scale 0 to 10, 0 is no effect, 10 is complete control
[4] = Preemergence, Rate 500 g/ha, scale 0 to 10 (0 no effect, 10 complete control)
[5] = Rate 62 g/ha, Postemergence, scale of 0 to 10 where 0 is no effect and 10 is complete control
[6] = Rate 125 g/ha, Postemergence, scale 0 to 10
[7] = Rate 500 g/ha, Postemergence, scale 0 to 10
[8] = Rate 62 g/ha, headed Pre-emergence (flood test species), scale 0 to 10 (0 no effect, 10 complete control)
[9] = Rate 125 g/ha, Pre-emergence, flood test species, scale 0 to 10 where 0 is no effect and 10 is complete control
[10] = Rate 250 g/ha, Pre-emergence, flood-test species, scale 0 to 10, 0 is no effect, 10 is complete control
[11] = headed Pre-emergence (flood test species), scale 0 to 10 (0 no effect, 10 complete control)
[12] = Preemergence, Rate 500 g/ha, scale of 0 to 10 where 0 is no effect and 10 is complete control
[13] = Rate 31 g/ha, Postemergence, scale 0 to 10
[14] = Rate 125 g/ha, Preemergence, scale of 0 to 10 where 0 is no effect and 10 is complete control
[15] = Preemergence, Rate 31 g/ha, visual rating, scale 0 to 10 (0 no effect, 10 complete control)
[16] = Preemergence, Rate 250 g/ha, scale of 0 to 10 where 0 is no effect and 10 is complete control

Compound	Cocklebur plant response rating (cocklebur; [1])	Cocklebur plant response rating (0 to 10 scale) (cocklebur; [2])	Cocklebur plant response rating (cocklebur; [3])	Cocklebur plant response rating (cocklebur; [5])	Cocklebur plant response rating (cocklebur; [6])	Plant response rating (0 to 10; 0 is no effect, 10 is complete control), Cocklebur (cocklebur; Rate 250 g/ha, Postemergence)	Cocklebur plant response rating (cocklebur; [7])	Giant foxtail plant response rating (giant foxtail; [1])	Giant foxtail plant response rating (0 to 10 scale) (giant foxtail; [2])	Giant foxtail plant response rating (giant foxtail; [3])	Giant foxtail plant response rating (giant foxtail; [5])	Giant foxtail plant response rating (giant foxtail; [6])	Plant response rating (0 to 10; 0 is no effect, 10 is complete control), Giant foxtail (giant foxtail; Rate 250 g/ha, Postemergence)	Morningglory plant response rating (morningglory; [1])	Morningglory plant response rating (morningglory; [5])	Morningglory plant response rating (morningglory; [6])	Plant response rating (0 to 10; 0 is no effect, 10 is complete control), Morningglory (morningglory; Rate 250 g/ha, Postemergence)	Barnyardgrass plant response rating (bamyardgrass; [8])	Barnyardgrass plant response rating (bamyardgrass; [9])	Barnyardgrass plant response rating (bamyardgrass; [10])	further results
COc1nc(OC)nc(N(C(=O)n2oc(=O)n(C(C)C)c2=O)C(C)C)n1 [Compound 182]	0	0	0	0	0	0	0	0	0	0	0	0	0	0	0	0	0	0	0	0	Cocklebur plant response rating (cocklebur; [4]): 0; Giant foxtail plant response rating (giant foxtail; [4]): 0; Giant foxtail plant response rating (giant foxtail; [7]): 0; Morningglory plant response rating (0 to 10 scale) (morningglory; [2]): 0; Morningglory plant response rating (morningglory; [3]): 0; Morningglory plant response rating (morningglory; [4]): 0; Morningglory plant response rating (morningglory; [7]): 0; Plant response rating, Barnyardgrass (bamyardgrass; [11]): 0
CCC(CC)N(C(=O)n1oc(=O)n(-c2ccccc2C)c1=O)c1ccc(F)cc1 [Compound 193]	0	0	0	0	0	0	0	2	4	5	0	0	0	0	0	0	1	0	0	0	Plant response rating, Cocklebur (cocklebur; [12]): 0; Plant response rating, Giant foxtail (giant foxtail; [12]): 6; Giant foxtail plant response rating (giant foxtail; [7]): 0; Morningglory plant response rating (0 to 10 scale) (morningglory; [2]): 0; Morningglory plant response rating (morningglory; [3]): 0; Plant response rating, Morningglory (morningglory; [12]): 0; Morningglory plant response rating (morningglory; [7]): 2; Plant response rating, Barnyardgrass (bamyardgrass; [11]): 0
C=CCn1c(=O)on(C(=O)N(c2ccc(F)cc2)C2CCC2)c1=O [Compound 194]	0	0	0	0	1	2	2	3	8	8	0	1	2	0	0	0	1	0	0	0	Plant response rating, Cocklebur (cocklebur; [12]): 0; Plant response rating, Giant foxtail (giant foxtail; [12]): 9; Giant foxtail plant response rating (giant foxtail; [7]): 2; Morningglory plant response rating (0 to 10 scale) (morningglory; [2]): 0; Morningglory plant response rating (morningglory; [3]): 0; Plant response rating, Morningglory (morningglory; [12]): 0; Morningglory plant response rating (morningglory; [7]): 2; Plant response rating, Barnyardgrass (bamyardgrass; [11]): 0
Cc1ccccc1-n1c(=O)on(C(=O)N(c2ccc(Cl)cc2F)C(C)C)c1=O [Compound 195]	0	0	0	0	2	2	2	3	3	8	0	0	1	0	0	0	1	0	0	0	Plant response rating, Cocklebur (cocklebur; [12]): 0; Plant response rating, Giant foxtail (giant foxtail; [12]): 10; Giant foxtail plant response rating (giant foxtail; [7]): 3; Morningglory plant response rating (0 to 10 scale) (morningglory; [2]): 0; Morningglory plant response rating (morningglory; [3]): 0; Plant response rating, Morningglory (morningglory; [12]): 0; Morningglory plant response rating (morningglory; [7]): 3; Plant response rating, Barnyardgrass (bamyardgrass; [11]): 0
CC(C)N(C(=O)n1oc(=O)n(CC#C[Si](C)(C)C)c1=O)c1ccc(F)cc1 [Compound 213]	0	–	–	0	0	0	–	0	–	–	0	0	2	0	6	6	7	0	–	0	Cocklebur plant response rating (cocklebur; [13]): 0; Cocklebur plant response rating (cocklebur; [14]): 0; Giant foxtail plant response rating (giant foxtail; [15]): 0; Giant foxtail plant response rating (giant foxtail; [16]): 4; Giant foxtail plant response rating (giant foxtail; [13]): 0; Giant foxtail plant response rating (giant foxtail; [14]): 2; Morningglory plant response rating (morningglory; [15]): 0; Morningglory plant response rating (morningglory; [16]): 3; Morningglory plant response rating (morningglory; [13]): 5; Morningglory plant response rating (morningglory; [14]): 0
CCCCn1c(=O)on(C(=O)N(c2ccc(F)cc2)C(C)C)c1=O [Compound 221]	0	–	–	0	0	0	–	5	–	–	2	7	7	0	0	0	0	0	0	0	Cocklebur plant response rating (cocklebur; [16]): 0; Cocklebur plant response rating (cocklebur; [13]): 0; Cocklebur plant response rating (cocklebur; [14]): 0; Giant foxtail plant response rating (giant foxtail; [15]): 5; Giant foxtail plant response rating (giant foxtail; [16]): 10; Giant foxtail plant response rating (giant foxtail; [13]): 0; Giant foxtail plant response rating (giant foxtail; [14]): 9; Morningglory plant response rating (morningglory; [15]): 0; Morningglory plant response rating (morningglory; [16]): 0; Morningglory plant response rating (morningglory; [13]): 0; Morningglory plant response rating (morningglory; [14]): 0; Barnyardgrass plant response rating (bamyardgrass; Rate 31 g/ha, Pre-emergence section (flood test species), scale 0 to 10): 0
